Results from US9113629B2, “4-amino-6-(4-substituted-phenyl)-picolinates and 6-amino-2-(4-substituted-phenyl)-pyrimidine-4-carboxylates and their use as herbicides” (DOW AGROSCIENCES LLC, priority 2013, dated 2015).
Like-named read-outs stand apart in the source and are kept apart here.

Experiments:
[1] = tested on: Key Grass and Sedge Weeds as well as Grass Crops; experiment: Post-emergent Test II herbicidal activity (Table 6); format: in vivo; conditions: post-emergence, 336 h; for pest or weed control at 70 g/ha: application rate 70 g ai/ha; for pest or weed control at 140 g/ha: application rate 140 g ai/ha
In short: (§1)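 Plants grown in Metro-Mix 360 (pH 6.0–6.8) in a greenhouse (~15 h photoperiod, 23–29 °C day) to first or second true leaf stage, then sprayed with compound in acetone/DMSO/aqueous crop-oil-surfactant carrier at 187 L/ha by track sprayer. Injury visually scored 0–100% versus untreated plants after 14 d.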

[2] = tested on: Key Broadleaf Weed and Crop Species; experiment: Post-emergent Test II herbicidal activity (Table 5); format: in vivo; conditions: post-emergence, 336 h, post-emergent, 14 days after application; for pest or weed control at 70 g/ha: 70 g ai/ha; for pest or weed control at 140 g/ha: 140 g ai/ha
In short: as §1

[3] = Triticum aestivum, TRZSS (wheat), read-out: Visual Growth Reduction (%) 14 Days After Application, TRZSS
[4] = CYPES: yellow nutsedge (Cyperus esculentus), read-out: Visual Growth Reduction (%) 14 Days After Application, CYPES
[5] = DIGSA: crabgrass (Digitaria sanguinalis), read-out: Visual Growth Reduction (%) 14 Days After Application, DIGSA
[6] = ECHCG: barnyardgrass (Echinochloa crus-galli), read-out: Visual Growth Reduction (%) 14 Days After Application, ECHCG
[7] = ORYSA: rice (Oryza sativa), read-out: Visual Growth Reduction (%) 14 Days After Application, ORYSA
[8] = SETFA: giant foxtail (Setaria faberi), read-out: Visual Growth Reduction (%) 14 Days After Application, SETFA
[9] = SORVU: grain sorghum (Sorghum vulgare), read-out: Visual Growth Reduction (%) 14 Days After Application, SORVU
[10] = ZEAMX: maize, corn (Zea mays), read-out: Visual Growth Reduction (%) 14 Days After Application, ZEAMX
[11] = ABUTH: velvetleaf (Abutilon theophrasti), read-out: Visual Growth Reduction (%) 14 Days After Application ABUTH
[12] = AMARE: redroot pigweed (Amaranthus retroflexus), read-out: Visual Growth Reduction (%) 14 Days After Application AMARE
[13] = BRSNN: oilseed-rape, canola (Brassica napus), read-out: Visual Growth Reduction (%) 14 Days After Application BRSNN
[14] = CHEAL: lambsquarters (Chenopodium album), read-out: Visual Growth Reduction (%) 14 Days After Application CHEAL
[15] = EPHHL: wild poinsettia (Euphorbia heterophylla), read-out: Visual Growth Reduction (%) 14 Days After Application EPHHL
[16] = HELAN: sunflower (Helianthus annuus), read-out: Visual Growth Reduction (%) 14 Days After Application HELAN
[17] = VIOTR: wild pansy (Viola tricolor), read-out: Visual Growth Reduction (%) 14 Days After Application VIOTR

| SMILES | pest or weed control at 70 g/ha [1, 3] [%] | pest or weed control at 140 g/ha [1, 3] [%] | pest or weed control at 70 g/ha [1, 4] [%] | pest or weed control at 140 g/ha [1, 4] [%] | pest or weed control at 70 g/ha [1, 5] [%] | pest or weed control at 140 g/ha [1, 5] [%] | pest or weed control at 70 g/ha [1, 6] [%] | pest or weed control at 140 g/ha [1, 6] [%] | pest or weed control at 70 g/ha [1, 7] [%] | pest or weed control at 140 g/ha [1, 7] [%] | pest or weed control at 70 g/ha [1, 8] [%] | pest or weed control at 140 g/ha [1, 8] [%] | pest or weed control at 70 g/ha [1, 9] [%] | pest or weed control at 140 g/ha [1, 9] [%] | pest or weed control at 70 g/ha [1, 10] [%] | pest or weed control at 140 g/ha [1, 10] [%] | pest or weed control at 70 g/ha [2, 11] [%] | pest or weed control at 140 g/ha [2, 11] [%] | pest or weed control at 70 g/ha [2, 12] [%] | pest or weed control at 140 g/ha [2, 12] [%] | further results |
| --- | --- | --- | --- | --- | --- | --- | --- | --- | --- | --- | --- | --- | --- | --- | --- | --- | --- | --- | --- | --- | --- |
| Nc1c(F)c(-c2cc(F)c(Br)cc2F)nc(C(=O)O)c1Cl [Compound 42, 4-amino-6-(4-bromo-2,5-difluorophenyl)-3-chloro-5-fluoropicolinic acid] | 60 to 74 | 75 to 84 | 95 to 100 | 95 to 100 | 75 to 84 | 85 to 94 | 95 to 100 | 95 to 100 | 30 to 44 | 30 to 44 | 95 to 100 | 95 to 100 | 95 to 100 | 95 to 100 | 75 to 84 | 60 to 74 | 85 to 94 | 95 to 100 | 95 to 100 | 95 to 100 | pest or weed control at 70 g/ha [2, 13]: 95 to 100%; pest or weed control at 140 g/ha [2, 13]: 95 to 100%; pest or weed control at 70 g/ha [2, 14]: 95 to 100%; pest or weed control at 140 g/ha [2, 14]: 95 to 100%; pest or weed control at 70 g/ha [2, 15]: 95 to 100%; pest or weed control at 140 g/ha [2, 15]: 95 to 100%; pest or weed control at 70 g/ha [2, 16]: 95 to 100%; pest or weed control at 140 g/ha [2, 16]: 95 to 100%; pest or weed control at 70 g/ha [2, 17]: 95 to 100%; pest or weed control at 140 g/ha [2, 17]: 95 to 100% |
| Nc1c(Cl)c(C(=O)O)nc(-c2ccc(Br)c(F)c2)c1Cl [Compound 43, 4-Amino-6-(4-bromo-3-fluorophenyl)-3,5-dichloropicolinic acid] | 60 to 74 | 60 to 74 | 95 to 100 | 95 to 100 | 75 to 84 | 75 to 84 | 75 to 84 | 60 to 74 | 0 to 29 | 30 to 44 | 60 to 74 | 60 to 74 | 95 to 100 | 95 to 100 | 75 to 84 | 75 to 84 | 85 to 94 | 85 to 94 | 95 to 100 | 95 to 100 | pest or weed control at 70 g/ha [2, 13]: 95 to 100%; pest or weed control at 140 g/ha [2, 13]: 95 to 100%; pest or weed control at 70 g/ha [2, 14]: 75 to 84%; pest or weed control at 140 g/ha [2, 14]: 75 to 84%; pest or weed control at 70 g/ha [2, 15]: 60 to 74%; pest or weed control at 140 g/ha [2, 15]: 60 to 74%; pest or weed control at 70 g/ha [2, 16]: 95 to 100%; pest or weed control at 140 g/ha [2, 16]: 95 to 100%; pest or weed control at 70 g/ha [2, 17]: 95 to 100%; pest or weed control at 140 g/ha [2, 17]: 95 to 100% |
